# Measurements reported in patent US6649636B1, “Heteroaryl phenyl pyrazole compounds as anti-inflammatory/analgesic agents” (Pfizer Inc., priority 1999, dated 2003).
row,SMILES,melting point [°C]
1,"CS(=O)(=O)c1ccc(-n2nc(C(F)(F)F)cc2-c2ccc(-c3ccco3)cc2)cn1 [Example 1, 5-[4-(2-Furyl)phenyl]-1-[2-(methylsulfonylpyridin)-5-yl]-3-trifluoromethyl-1H-pyrazole]",106 to 109
2,Cc1cc(-c2cc(C(F)(F)C(F)(F)F)nn2-c2ccc(S(C)(=O)=O)nc2)ccc1-c1cscn1 [Example 4],120.8
3,Cc1cc(-c2c(Cl)c(C(F)(F)F)nn2-c2ccc(S(C)(=O)=O)nc2)ccc1-c1cscn1 [Example 5],81 to 83
4,CS(=O)(=O)c1ccc(-n2nc(C(F)(F)F)c(F)c2-c2ccc(-c3cscn3)cc2)cn1 [Example 7],170.5 to 171
5,Cc1cc(-c2cc(C(F)(F)F)nn2-c2ccc(S(C)(=O)=O)cn2)ccc1-c1cocn1 [Example 9],154 to 155
6,Cc1cc(-c2c(C#N)cnn2-c2ccc(S(C)(=O)=O)cn2)ccc1-c1cscn1 [Example 11],223 to 224
7,COC(=O)c1cc(-c2ccc(-c3cscn3)c(C)c2)n(-c2ccc(S(C)(=O)=O)cn2)n1 [Example 12],144 to 145
8,CCc1c(C(F)(F)F)nn(-c2ccc(S(C)(=O)=O)cn2)c1-c1ccc(-c2cscn2)c(C)c1 [Example 13],163 to 164
9,Cc1cc(-c2cc(C(F)(F)F)nn2-c2ccc(S(C)(=O)=O)cn2)ccc1-c1ccco1 [Example 15],160 to 161.1
10,Cc1cc(-c2cc(C(F)(F)F)nn2-c2ccc(S(C)(=O)=O)cn2)ccc1-c1ccsc1 [Example 16],165 to 166
11,Cc1cc(-c2cc(C(F)(F)F)nn2-c2ccc(S(C)(=O)=O)c(F)n2)ccc1-c1cscn1 [Example 25],158.9
12,Cc1cc(-c2cc(C(F)F)nn2-c2ccc(S(C)(=O)=O)cn2)ccc1-c1cscn1 [Example 27],156.9
13,Cc1cc(-c2cc(C(F)(F)F)nn2-c2ccc(S(C)(=O)=O)cn2)ccc1-c1ncco1 [Example 28],174.5 to 176
14,Cc1cc(-c2cc(C(F)(F)F)nn2-c2ccc(S(C)(=O)=O)cn2)ccc1-c1nn[nH]n1 [Example 29],241 to 242
15,Cc1cc(-c2cc(C(F)(F)F)nn2-c2ccc(S(C)(=O)=O)cn2)ccc1-c1cnn[nH]1 [Example 30],189
16,Cc1nc(-c2ccc(-c3cc(C(F)(F)F)nn3-c3ccc(S(C)(=O)=O)nc3)cc2)cs1 [Example 32],176.9
17,CS(=O)(=O)c1ccc(-n2nc(C(F)(F)F)cc2-c2ccc(-c3ccc(Cl)s3)cc2)cn1 [Example 34],155 to 156
18,Cc1ccc(-c2ccc(-c3cc(C(F)(F)F)nn3-c3ccc(S(C)(=O)=O)nc3)cc2)s1 [Example 35],123 to 124
19,CS(=O)(=O)c1ccc(-n2nc(C(F)(F)F)cc2-c2ccc(-c3ccco3)cc2)nn1 [Example 36],209 to 212
20,CS(=O)(=O)c1cnc(-n2nc(C(F)(F)F)cc2-c2ccc(-c3ccco3)cc2)s1 [Example 37],188 to 190

# Next, values leading:
row,melting point [°C],SMILES
1,179 to 182,Cc1cc(-c2cc(C(F)(F)F)nn2-c2ccc(S(C)(=O)=O)cn2)ccc1-c1cscn1 [Example 2]
2,214 to 215,Cc1cc(-c2cc(C(F)(F)F)nn2-c2ccc(S(C)(=O)=O)cn2)c(C)cc1-c1cscn1 [Example 10]
3,95 to 100,CS(=O)(=O)c1ccc(-n2nc(C(F)(F)F)cc2-c2ccc(-c3cscn3)c(Cl)c2)cn1 [Example 17]
4,210 to 211,CS(=O)(=O)c1ccc(-n2nc(C(F)(F)F)cc2-c2ccc(-c3cscn3)cc2)nc1 [Example 18]
5,175.6,CS(=O)(=O)c1ccc(-n2nc(C(F)(F)F)cc2-c2ccc(-c3cscn3)c(Cl)c2)nc1 [Example 19]
6,170 to 175,COc1cc(-c2cc(C(F)(F)F)nn2-c2ccc(S(C)(=O)=O)cn2)ccc1-c1cscn1 [Example 20]
7,194.3,CS(=O)(=O)c1ccc(-n2nc(C(F)(F)F)cc2-c2ccc(-c3cscn3)cc2F)nc1 [Example 21]
8,166.1,CS(=O)(=O)c1ccc(-n2nc(C(F)(F)F)cc2-c2ccc(-c3cscn3)cc2Cl)nc1 [Example 22]
9,165.8,CCc1cc(-c2cc(C(F)(F)F)nn2-c2ccc(S(C)(=O)=O)cn2)ccc1-c1cscn1 [Example 23]
10,187.5,CS(=O)(=O)c1ccc(-n2nc(C(F)(F)F)cc2-c2ccc(-c3cscn3)c(F)c2)nc1 [Example 24]
